How the values were obtained:
5-HT1A human receptors = molecular target: T1, 5-HT1A human receptors (Homo sapiens, UniProt P08908); experiment: 5-HT1A Radioligand Receptor Binding Assay ([3H]-8-OH-DPAT, CHO cell membranes); details: compound at 10^-7 M, singlicate; [3H]-8-OH-DPAT 0.6-0.7 nM; read-out: 5-HT1A receptor binding assay % inhib. (10^-7 M)
T1 construct: expressed in transfected cells; host or cells: CHO cells
T1 sequence (P08908 1-422): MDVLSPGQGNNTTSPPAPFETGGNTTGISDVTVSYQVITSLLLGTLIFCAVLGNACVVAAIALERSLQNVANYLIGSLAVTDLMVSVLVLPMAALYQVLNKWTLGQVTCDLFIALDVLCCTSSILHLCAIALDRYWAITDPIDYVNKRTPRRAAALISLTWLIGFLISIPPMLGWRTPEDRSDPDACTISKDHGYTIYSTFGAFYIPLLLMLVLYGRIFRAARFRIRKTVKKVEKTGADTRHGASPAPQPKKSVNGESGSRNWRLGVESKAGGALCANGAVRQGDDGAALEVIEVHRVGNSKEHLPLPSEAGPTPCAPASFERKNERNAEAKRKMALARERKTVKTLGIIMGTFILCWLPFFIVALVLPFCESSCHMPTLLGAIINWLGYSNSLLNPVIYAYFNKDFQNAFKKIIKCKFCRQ
Method: Membranes from CHO cells, expressing 5-HT1A human receptors were suspended in incubation buffer.
The compounds were tested in singlicate at one concentration (10^-7 M) in a total volume of 1000 µl. 980 µl of diluted membranes, 10 µl DMSO or unlabelled ligand and 10 µl of [^3H]-8-OH-DPAT (0.6-0.7 nM) were incubated for 60 min at 27 °C. The reaction was stopped by rapid filtration through Tomtec cell Harvester (48 wells) using Filtermat B (presoaked in 0.1% PEI) filters. […] Non specific binding was determined in the presence of 5-HT (10^-5 M).
(§1) The specific radioligand binding to the receptor was defined by the difference between total binding and non specific binding, determined in the presence of an excess of unlabelled ligand. Results were expressed as percentage of control specific binding obtained in the presence of the compounds.
The affinity values (IC50) for the compounds were obtained by a non linear least squares regression analysis on the basis of a one binding site model.

D4 human receptors = molecular target: T2, D4 human receptors (Homo sapiens, UniProt P21917); experiment: D4 Radioligand Receptor Binding Assay ([3H] YM-09151-2, CHO cell membranes); details: compound at 10^-7 M, singlicate; [3H] YM-09151-2 0.15-0.25 nM; read-out: D4 receptor binding assay % inhib. (10^-7 M)
T2 construct: expressed in transfected cells; host or cells: CHO cells
T2 sequence (P21917 1-419): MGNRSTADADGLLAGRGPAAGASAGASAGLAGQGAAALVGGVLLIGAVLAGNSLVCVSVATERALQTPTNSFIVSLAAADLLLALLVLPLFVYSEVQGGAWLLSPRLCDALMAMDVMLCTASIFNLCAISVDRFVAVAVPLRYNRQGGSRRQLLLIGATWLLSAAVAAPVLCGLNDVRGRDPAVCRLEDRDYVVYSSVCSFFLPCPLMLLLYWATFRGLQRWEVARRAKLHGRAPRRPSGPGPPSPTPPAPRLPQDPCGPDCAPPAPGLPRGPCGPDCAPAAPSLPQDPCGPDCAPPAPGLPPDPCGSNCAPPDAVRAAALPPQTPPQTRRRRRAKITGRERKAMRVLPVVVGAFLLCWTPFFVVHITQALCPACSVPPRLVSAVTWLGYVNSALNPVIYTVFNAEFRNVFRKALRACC
Method: Membranes from CHO cells, expressing D4 human receptors were suspended in incubation buffer.
Binding assays were performed in MultiProbe 204 pipetting system (Packard), according to a predetermined mapping, consistent with the software Screen. The compounds were tested in singlicate at one concentration (10^-7 M) in a total volume of 1000 µl (980 µl of diluted membranes, 10 µl DMSO or unlabelled ligand and 10 µl of [^3H] YM-09151-2 (0.15-0.25 nM). After incubation for 120 min at 27 °C, the reaction was stopped by rapid filtration through Tomtec cell Harvester (48 wells) using Filtermat B (presoaked in 0.1% PEI) filters. Filters were washed with ice-cold 50 mM Tris-HCl (pH 7.4) buffer (9 x 700 µl), dryed, covered with MeltiLex B/HS (Wallac) scintillator sheets and heated in oven at 80-90 °C for about 10 min, transferred into plastic sample bags (Wallac), sealed and put into 1024 Beta Plate scintillation counter (Wallac). Non specific binding was determined in the presence of clozapine dissolved in DMSO to a final concentration of 10^-5 M.
as §1

CHO/5-HT1A cells = molecular target: T3, CHO/5-HT1A cells (Homo sapiens, UniProt P08908); experiment: 5-HT1A Functional assay (cAMP); type: cell-based; details: 10 µM compound, % inhibition of the cAMP accumulation induced by 10 µM FSK; for inhibition at 10 µM: read-out: 5-HT1A cAMP % inhib.
T3 construct: expressed in transfected cells; host or cells: CHO/5-HT1A cells
T3 sequence (P08908 1-422): T1 sequence (P08908 1-422)
Method: CHO/5-HT1A cells were random seeded at a density of about 200,000/well in 24 well plates the day prior to the experiment. On the day of the experiment, cells were pretreated for 15 min at 37 °C with 500 µM isobuthylmethylxantine (IBMX) dissolved in culture medium without serum. Wells were then divided in different groups in duplicate as follows: control, 10 µM FSK, 10 µM FSK + 1 µM 5-HT as positive standard and 10 µM FSK + 10 µM of the different compound under evaluation. Sample solutions were added and incubated for additional 15 min at 37 °C. After incubation, medium was aspirated and the reaction stopped by adding 200 µl of lysis buffer. Plates were shaken for 5 min, then the lysate was removed and samples were stored at 4 °C until the day of the assay. For the cAMP evaluation, samples were properly diluted and the cAMP content was measured by an enzymeimmunoassay system.

Compound	inhibition at 0.1 µM (5-HT1A human receptors) [%]	inhibition at 0.1 µM (D4 human receptors) [%]	inhibition at 10 µM (CHO/5-HT1A cells) [%]	5-HT1A cAMP % inhib. (CHO/5-HT1A cells) [%]
O=c1n(CCO)c2ccccc2n1CCCCN1CCN(c2ccccn2)CC1 [compound 59]	75	51	–	–
O=c1n(CCO)c2ccccc2n1CCCCN1CCc2c([nH]c3ccccc23)C1 [compound 62]	73	96	–	–
O=c1n(CCO)c2ccccc2n1CCCCN1CC=C(c2ccccc2)CC1 [compound 65]	52	74	–	–
O=c1n(CCO)c2ccccc2n1CCCCN1CCN(c2ccc(Cl)c(Cl)c2)CC1 [compound 66]	65	99	–	–
COc1ccccc1N1CCN(CCCCn2c(=O)n(CCO)c3ccccc32)CC1 [compound 74]	92	62	–	–
CCNC(=O)OCCn1c(=O)n(CCCCN2CCN(c3ccccc3)CC2)c2ccccc21 [compound 75]	67	54	–	–
O=c1n(CCN2CCCCC2)c2ccccc2n1CCN1CCN(c2cccc(C(F)(F)F)c2)CC1 [compound 149]	88	35	–	–
O=c1n(CCN2CC=C(c3ccccc3)CC2)c2ccccc2n1CCN1CCCCC1 [compound 150]	57	52	–	–
COc1ccccc1N1CCN(CCn2c(=O)n(CCN3CCCCC3)c3ccccc32)CC1 [compound 159]	85	50	–	–
CCNC(=O)OCCn1c(=O)n(CCN2CCN(c3ccccc3OC)CC2)c2ccccc21 [compound 216]	92	44	–	–
O=c1n(CCN2CCOCC2)c2ccccc2n1CCN1CCN(c2cccc(Cl)c2)CC1 [compound 224]	98	51	–	–
O=c1n(CCN2CC=C(c3ccccc3)CC2)c2ccccc2n1CCN1CCOCC1 [compound 229]	67	34	–	–
CS(=O)(=O)NCCn1c(=O)n(CCN2CCN(c3cccc(Cl)c3)CC2)c2ccccc21 [compound 241]	69	32	–	–
COc1ccccc1N1CCN(CCn2c(=O)n(CCNS(C)(=O)=O)c3ccccc32)CC1 [compound 255]	58	33	–	–
Cc1cccc(N2CCN(CCn3c(=O)n(CCNS(C)(=O)=O)c4ccccc43)CC2)c1 [compound 256]	59	51	–	–
O=c1n(C/C=C\CN2CCN(c3cccc(Cl)c3)CC2)c2ccccc2n1CCN1CCOCC1 [compound 263]	–	–	63	–
O=c1n(CC=CCN2CCc3c([nH]c4ccccc34)C2)c2ccccc2n1CCN1CCOCC1 [compound 265]	55	78	–	–
COCCn1c(=O)n(CC=CCN2CCN(c3cccc(Cl)c3)CC2)c2ccccc21 [compound 280]	93	38	–	–
COCCn1c(=O)n(CC=CCN2CCN(c3cccc(C(F)(F)F)c3)CC2)c2ccccc21 [compound 284]	–	–	82	–
COCCn1c(=O)n(C/C=C\CN2CCN(c3ccc(Cl)c(Cl)c3)CC2)c2ccccc21 [compound 286]	65	87	–	–
COCCn1c(=O)n(C/C=C/CN2CCN(c3ccccc3)CC2)c2ccccc21 [compound 293]	89	32	–	–
COCCn1c(=O)n(C/C=C/CN2CCN(c3ccccn3)CC2)c2ccccc21 [compound 296]	–	–	82	–
COCCn1c(=O)n(C/C=C/CN2CCN(c3cccc(Cl)c3)CC2)c2ccccc21 [compound 297]	–	–	74	–
COCCn1c(=O)n(CC=CCN2CCN(c3cccc(C(F)(F)F)c3)CC2)c2ccccc21 [compound 301]	–	–	–	83
COCCn1c(=O)n(C/C=C/CN2CCN(c3ccc(Cl)c(Cl)c3)CC2)c2ccccc21 [compound 303]	71	70	–	–
O=c1n(C/C=C\CN2CCN(C(c3ccccc3)c3ccc(Cl)cc3)CC2)c2ccccc2n1CCN1CCCCC1 (stereo not drawn) [compound 311]	59	60	–	–
O=c1n(C/C=C\CN2CCc3c([nH]c4ccccc34)C2)c2ccccc2n1CCN1CCCCC1 [compound 316]	72	94	–	–
O=c1n(C/C=C\CN2CC=C(c3ccccc3)CC2)c2ccccc2n1CCN1CCCCC1 [compound 319]	94	70	–	–

More lines, main results first:

inhibition at 0.1 µM (5-HT1A human receptors) [%]	inhibition at 0.1 µM (D4 human receptors) [%]	inhibition at 10 µM (CHO/5-HT1A cells) [%]	Compound	5-HT1A cAMP % inhib. (CHO/5-HT1A cells) [%]
99	51	–	O=c1n(C/C=C/CN2CCN(c3cccc(Cl)c3)CC2)c2ccccc2n1CCN1CCOCC1 [compound 348]	–
86	46	–	O=c1n(C/C=C\CN2CCN(c3ccccc3)CC2)c2ccccc2n1CCO [compound 361]	–
77	36	–	O=c1n(C/C=C\CN2CCN(c3ccccn3)CC2)c2ccccc2n1CCO [compound 364]	–
61	90	–	O=c1n(C/C=C\CN2CCc3c([nH]c4ccccc34)C2)c2ccccc2n1CCO [compound 367]	–
59	95	–	O=c1n(C/C=C\CN2CCN(c3ccc(Cl)c(Cl)c3)CC2)c2ccccc2n1CCO [compound 371]	–
77	35	–	O=c1n(C/C=C/CN2CCN(c3ccccc3)CC2)c2ccccc2n1CCO [compound 378]	–
86	32	–	CCNC(=O)OCCn1c(=O)n(C/C=C\CN2CCN(c3ccccc3)CC2)c2ccccc21 [compound 395]	–
93	39	–	CCNC(=O)OCCn1c(=O)n(C/C=C/CN2CCN(c3ccccc3)CC2)c2ccccc21 [compound 412]	–
70	63	–	CS(=O)(=O)NCCn1c(=O)n(C/C=C\CN2CCc3c([nH]c4ccccc34)C2)c2ccccc21 [compound 501]	–
78	58	–	CS(=O)(=O)NCCn1c(=O)n(C/C=C\CN2CCN(c3ccc(Cl)c(Cl)c3)CC2)c2ccccc21 [compound 505]	–
73	36	–	CS(=O)(=O)NCCn1c(=O)n(C/C=C/CN2CCN(c3ccc(Cl)c(Cl)c3)CC2)c2ccccc21 [compound 527]	–
97	39	–	COc1ccccc1N1CCN(C/C=C/Cn2c(=O)n(CCNS(C)(=O)=O)c3ccccc32)CC1 [compound 535]	–

— patent publication EP1322622B1, “NEW N, N'-DISUBSTITUTED BENZIMIDAZOLONE DERIVATIVES WITH AFFINITY AT THE SEROTONIN AND DOPAMINE RECEPTORS” (Sprout Pharmaceuticals, Inc., priority 2000, dated 2002)
